Reference: US20240391870A1 (Arcturus Therapeutics, Inc., priority 2023, published 2024)

Legend:
[1] = system: factor VII; assay: Factor VII knock down evaluation (LNP with FVII siRNA); format: in vivo, Balb/C mice; details: plasma FVII after 48 h vs saline control; for FVII KD % 0.01 mpk: 0.01 mpk i.v.; for FVII KD % 0.03 mpk: 0.03 mpk i.v.
Method: Lipid formulations comprising a FVII siRNA further described below were evaluated for their knockdown activity using the protocol of this example. In the FVII evaluation, seven to eight week-old, female Balb/C mice were purchased from Charles River Laboratories (Hollister, CA). The mice were held in a pathogen-free environment and all procedures involving the mice were performed in accordance with guidelines established by the Institutional Animal Care and Use Committee (IACUC). Lipid nanoparticles containing factor VII siRNA were administered intravenously at a dosing volume of 10 mL/kg and two dose levels (0.03 and 0.01 mg/kg). After 48 h, the mice were anesthetized with isoflurane and blood was collected retro-orbitally into Microtainer® tubes coated with 0.109 M sodium citrate buffer (BD Biosciences, San Diego, CA) and processed to plasma. Plasma specimens were tested for factor VII levels immediately or stored at −80° C. for later analysis. Measurement of FVII protein in plasma was determined using the colorimetric Biophen VII assay kit (Aniara Diagnostica, USA). Absorbance was measured at 405 nm and a calibration curve was generated using the serially diluted control plasma to determine levels of factor VII in plasma from treated animals, relative to the saline-treated control animals.

[2] = system: hEPO; assay: hEPO mRNA expression evaluation (hEPO-LNPs); format: in vivo, Balb/c mice; details: serum hEPO after 6 hr; for EPO exprssn (ng/mL) 0.03 mpk: 0.03 mpk i.v.; for EPO exprssn (ng/mL) 0.1 mpk: 0.1 mpk i.v.
Method: Protocol for hEPO mRNA Expression Evaluation
Lipid formulations comprising a hEPO mRNA below were evaluated for their ability to express hEPO in vivo according to the protocol of this example. All animal experiments were conducted using institutionally-approved protocols (IACUC). In this protocol, female Balb/c mice at least 6-8 weeks of age were purchased from Charles River Laboratory. […] After 6 hr, blood was collected with serum separation tubes, and the serum was isolated by centrifugation. Serum hEPO levels were then measured using an ELISA assay (Human Erythropoietin Quantikine IVD ELISA Kit, R&D Systems, Minneapolis, MD).

[3] = Mouse plasma stability; format: in vitro ADME, CD-1 mouse; details: 1 uM lipid
Method: Lipid stock solution was prepared by dissolution of the lipid in isopropanol at the concentration of 5 mg/mL. A requisite volume of the lipid-isopropanol solution was then diluted to 100 μM concentration at a total volume of 1.0 mL with in 50:50 (v/v) ethanol/water. Ten microliters of this 100 μM solution was spiked into 1.0 mL of mouse plasma (BioIVT, Cat. No.: MSE00PLNHUNN, CD-1 mouse, anticoagulant: sodium heparin, not filtered) that was pre-warmed to 37° C. and was stirred at 50 rpm with a magnetic stir bar. The starting concentration of lipids in plasma was thus 1 μM. At time points 0, 15, 30, 45, 60 and 120 min, 0.1 mL of the plasma was withdrawn from the reaction mixture and the protein was precipitated by adding 0.9 mL of ice-cold 4:1 (v/v) acetonitrile/methanol with 1 μg/mL of a selected internal standard lipid added. After filtration through a 0.45 micron 96-well filtering plate, the filtrates were analyzed by LC-MS (Thermo Fisher's Vanquish UHPLC—LTQ XL linear ion trap Mass Spectrometer); Waters XBridge BEH Shield RP18 2.5 micron (2.1×100 mm) column with its matching guard column. Mobile phase A was 0.1% formic acid in water, and mobile phase B was 0.1% formic acid in 1:1 (v/v) acetonitrile/methanol. Flow rate was 0.5 ml/min. Elution gradient was: Time 0-1 min: 10% B; 1-6 min: 10%-95% B; 6-8.5 min: 95% B; 8.5-9 min: 95%-10% B; 9-10 min: 10% B. Mass spectrometry was in positive scanning mode from 600-1100 m/z. The peak of the molecular ion of the lipids was integrated in the extracted ion chromatography (XIC) using Xcalibur software (Thermo Fisher). The relative peak area compared to T=0, after normalization by the peak area of the internal standard, was used as the percentage of the lipid remaining at each time point. T1/2 values were calculated using the first-order decay model.

[4] = Measured pKa in the indicated formulation; details: for pKa: EPO / pKa: FVII: Table 2; for pKa: EPO: measured in EPO formulation; for pKa: FVII: measured in FVII formulation
Method: Measured pKa values were determined based on the pH measured in the indicated formulation (i.e., EPO or FVII formulation).

[5] = In vivo biodegradability assay (lipid in liver); details: mouse liver, 48 h
Method: In vivo biodegradability assay was performed to assess the biodegradability of lipids in the LNP. Briefly, mice were injected with either 0.1 or 0.03 mg/Kg dose and after 24 or 48 hours mice livers were collected. To measure the concentration of lipids in the mouse liver, liver samples were homogenized in appropriate buffer in 1-10 dilution and mixed with the same amount of stabilized plasma. The samples were then mixed with organic solvents spiked with internal standard to precipitate proteins. After centrifugation, supernatant was diluted further with organic solvent before sample analysis by LC-MS. In LC-MS analysis, positive electrospray ionization was used, and multiple reaction monitoring (MRM) parameters were set up to specifically target the lipid analyte and internal standard. Calibration standards were prepared in stabilized plasma and mixed with same amount of homogenization buffer before protein precipitation. Quality control samples with known amounts of lipid was prepared in blank liver homogenate to monitor the precision and accuracy of the assay.

SMILES | Percent remaining in mouse plasma after 2 h ([3]; Table 1, mouse plasma 37 C) | Percent remaining in mouse plasma after 2 h ([3]; Table 2, mouse plasma 37 C) | pKa ([4]; EPO formulation) | pKa: EPO [4] | In vivo degradability (ng/tissue) at 48h 0.03 mpk ([5]; Table 1) | In vivo degradability (ng/tissue) at 48h 0.1 mpk ([5]; Table 1) | In vivo degradability (ng/tissue) at 48h 0.03 mpk ([5]; Table 2) | In vivo degradability (ng/tissue) at 48h 0.1 mpk ([5]; Table 2) | pKa ([4]; FVII formulation) | pKa: FVII [4] | FVII KD % 0.01 mpk ([1]; Table 1) | FVII KD % 0.03 mpk ([1]; Table 1) | FVII KD % 0.01 mpk ([1]; Table 2) | FVII KD % 0.03 mpk ([1]; Table 2) | EPO exprssn (ng/mL) 0.03 mpk ([2]; Table 1) | EPO exprssn (ng/mL) 0.1 mpk ([2]; Table 1) | EPO exprssn (ng/mL) 0.03 mpk ([2]; Table 2) | EPO exprssn (ng/mL) 0.1 mpk ([2]; Table 2)
CCCCCCCCC(=O)OCC(COC(=O)CCCCCCCC)COC(=O)CCN(CCC(=O)OCC(COC(=O)CCCCCCCC)COC(=O)CCCCCCCC)C(=O)SCCCN(C)C [LIPID 14] | 116% | 100% | 7.19 | 7.19 | <340 ng/tissue | <340 ng/tissue | <340 ng/tissue | <340 ng/tissue | 6.86 | 6.86 | 65% | 90% | 65% | 90% |  |  |  | 1152 ng/mL
CCCCCCC(C)C(=O)OCC(COC(=O)C(C)CCCCCC)OC(=O)CCCN(CCCC(=O)OC(COC(=O)C(C)CCCCCC)COC(=O)C(C)CCCCCC)C(=O)SCCCN(C)C (stereo not shown) [LIPID 18, ((4,4′-((((3-(Dimethylamino)propyl)thio)carbonyl)azanediyl)bis(butanoyl))bis(oxy))bis(propane-2,1,3-triyl)tetrakis(2-methyloctanoate)] | 100% | 100% | 6.44 | 6.44 | <340 ng/tissue | 639 ng/tissue | <340 ng/tissue | 639 ng/tissue | 6.49 | 6.49 | 60% | 88% | 60% | 88% |  | 1081 ng/mL |  | 1081 ng/mL
CCCCCC(C)(C)C(=O)OCC(COC(=O)C(C)(C)CCCCC)OC(=O)CCCN(CCCC(=O)OC(COC(=O)C(C)(C)CCCCC)COC(=O)C(C)(C)CCCCC)C(=O)SCCCN(C)C [LIPID 19, ((4,4′-((((3-(Dimethylamino)propyl)thio)carbonyl)-azanediyl)bis(butanoyl))bis(oxy))bis(propane-2,1,3-triyl)tetrakis(2,2-dimethylheptanoate)] |  | 100% | 6.27 | (6.27/ND) | <340 ng/tissue | 847 ng/tissue | <340 ng/tissue | 847 ng/tissue |  |  |  |  |  |  |  |  |  | 958 ng/mL

More lines, main results first:

Percent remaining in mouse plasma after 2 h ([3]; Table 1, mouse plasma 37 C) | Percent remaining in mouse plasma after 2 h ([3]; Table 2, mouse plasma 37 C) | pKa ([4]; EPO formulation) | pKa: EPO [4] | In vivo degradability (ng/tissue) at 48h 0.03 mpk ([5]; Table 1) | In vivo degradability (ng/tissue) at 48h 0.1 mpk ([5]; Table 1) | In vivo degradability (ng/tissue) at 48h 0.03 mpk ([5]; Table 2) | In vivo degradability (ng/tissue) at 48h 0.1 mpk ([5]; Table 2) | pKa ([4]; FVII formulation) | pKa: FVII [4] | SMILES | FVII KD % 0.01 mpk ([1]; Table 1) | FVII KD % 0.03 mpk ([1]; Table 1) | FVII KD % 0.01 mpk ([1]; Table 2) | FVII KD % 0.03 mpk ([1]; Table 2) | EPO exprssn (ng/mL) 0.03 mpk ([2]; Table 1) | EPO exprssn (ng/mL) 0.1 mpk ([2]; Table 1) | EPO exprssn (ng/mL) 0.03 mpk ([2]; Table 2) | EPO exprssn (ng/mL) 0.1 mpk ([2]; Table 2)
13% | 13% | 6.22 | (6.22/ND) | BLOQ | BLOQ | BLOQ | BLOQ |  |  | CCCCCCCC(=O)OCC(COC(=O)CCCCCCC)OC(=O)CCCC(CCCC(=O)OC(COC(=O)CCCCCCC)COC(=O)CCCCCCC)SC(=O)CCCN(C)C [LIPID 4, bis(1,3-bis(Octanoyloxy)propan-2-yl) 5-((4-(dimethylamino)butanoyl)thio)nonanedioate] | 71% | 33% | 71% | 33% | 392 ng/mL | 1108 ng/mL | 392 ng/mL | 1108 ng/mL
40% | 40% | 6.6 | 6.6 | BLOQ | BLOQ | BLOQ | BLOQ | 6.68 | 6.68 | CN(C)CCCSC(=O)N(CCCC(=O)OC(COC(=O)CCCC1CCCCC1)COC(=O)CCCC1CCCCC1)CCCC(=O)OC(COC(=O)CCCC1CCCCC1)COC(=O)CCCC1CCCCC1 [LIPID 11, ((4,4′-((((3-(Dimethylamino)propyl)thio)carbonyl)azanediyl)bis(butanoyl))bis(oxy))bis(propane-2,1,3-triyl)tetrakis(4-cyclohexylbutanoate)] | 84% | 22% | 84% | 22% | 169 ng/mL | 548 ng/mL | 169 ng/mL | 548 ng/mL
14% | 14% | 6.4 | 6.4 | BLOQ | BLOQ | BLOQ | BLOQ | 6.64 | 6.64 | CCCCCCCCC(=O)OCC(COC(=O)CCCCCCCC)OC(=O)CCCN(CCCC(=O)OC(COC(=O)CCCCCCCC)COC(=O)CCCCCCCC)C(=O)SCCCN(C)C [LIPID 1, ((4,4′-((((3-(Dimethylamino)propyl)thio)carbonyl)azanediyl)bis(butanoyl))bis(oxy))bis(propane-2,1,3-triyl)tetranonanoate] | 84% | 100% | 84% | 100% | 432 ng/mL | 1413 ng/mL | 432 ng/mL | 1413 ng/mL
81% | 81% | 6.5 | (6.50/ND) | BLOQ | BLOQ | BLOQ | BLOQ |  |  | CCCCCCCCC(=O)OCC(COC(=O)CCCCCCCC)OC(=O)CN(CC(=O)OC(COC(=O)CCCCCCCC)COC(=O)CCCCCCCC)C(=O)SCCCN(C)C [LIPID 8, ((2,2′-((((3-(Dimethylamino)propyl)thio)carbonyl)azanediyl)bis(acetyl))bis(oxy))bis(propane-2,1,3-triyl)tetranonanoate] |  |  |  |  | 169 ng/mL | 701 ng/mL | 169 ng/mL | 701 ng/mL
